According to ChEMBL document CHEMBL1201862, “PubChem BioAssay data set” (2004):
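48-hour exposure; five concentrations; linearly interpolated endpoints. GI50 = concentration required for 50% inhibition of growth.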 Calls of active or inactive are those of the source. No stated cut-off is given here; in the data, active = GI50 up to about 1.1 µM and inactive = higher.

Experiments:
Assay in all cases: NCI anticancer screen, dose series, 48 h
HCT-116 = system: HCT-116
Hs-578T = system: Hs-578T
EKVX = system: EKVX
UO-31 = system: UO-31
HT-29 = system: HT-29
SR = system: SR
SK-MEL-2 = system: SK-MEL-2
HOP-62 = system: HOP-62
NCI-H522 = system: NCI-H522
786-0 = system: 786-0
UACC-257 = system: UACC-257
IGROV-1 = system: IGROV-1
NCI-H460 = system: NCI-H460
SF-268 = system: SF-268
OVCAR-3 = system: OVCAR-3
BT-549 = system: BT-549
NCI-H23 = system: NCI-H23
UACC-62 = system: UACC-62
PC-3 = system: PC-3
K562 = system: K562

Row | Structure (SMILES) | GI50 (HCT-116) | GI50 (Hs-578T) | GI50 (EKVX) | GI50 (UO-31) | GI50 (HT-29) | GI50 (SR) | GI50 (SK-MEL-2) | GI50 (HOP-62) | GI50 (NCI-H522) | GI50 (786-0) | GI50 (UACC-257) | GI50 (IGROV-1) | GI50 (NCI-H460) | GI50 (SF-268) | GI50 (OVCAR-3) | GI50 (BT-549) | GI50 (NCI-H23) | GI50 (UACC-62) | GI50 (PC-3) | GI50 (K562)
1 | O=C(O)c1cccc(OCCOc2cccc(C(=O)O)c2[N+](=O)[O-])c1[N+](=O)[O-] | > 100 µM (inactive) | > 100 µM (inactive) | > 100 µM (inactive) | > 100 µM (inactive) | > 100 µM (inactive) | > 100 µM (inactive) | > 100 µM (inactive) | > 100 µM (inactive) | > 100 µM (inactive) | > 100 µM (inactive) | > 100 µM (inactive) | > 100 µM (inactive) | > 100 µM (inactive) | > 100 µM (inactive) | > 100 µM (inactive) | > 100 µM (inactive) | > 100 µM (inactive) | > 100 µM (inactive) | > 100 µM (inactive) | 
2 | O=c1[nH]c(=O)n(C2CC(O)C(CO)O2)cc1Oc1ccccc1 (configuration not stated) | > 100 µM (inactive) | > 100 µM (inactive) | > 100 µM (inactive) | > 100 µM (inactive) | > 100 µM (inactive) | > 100 µM (inactive) |  | > 100 µM (inactive) | > 100 µM (inactive) | > 100 µM (inactive) | > 100 µM (inactive) | > 100 µM (inactive) | > 100 µM (inactive) | > 100 µM (inactive) | > 100 µM (inactive) | > 100 µM (inactive) | > 100 µM (inactive) | > 100 µM (inactive) | > 100 µM (inactive) | > 100 µM (inactive)
3 | COc1cc(C2SCC(=O)N2c2cccc(Cl)c2)cc(OC)c1OC (configuration not stated) | 58.9 µM (inactive) | > 100 µM (inactive) | 76.9 µM (inactive) | 58.2 µM (inactive) | > 100 µM (inactive) | 28.4 µM (inactive) | > 100 µM (inactive) |  | 21.2 µM (inactive) | 51.6 µM (inactive) | > 100 µM (inactive) | 65.9 µM (inactive) | > 100 µM (inactive) | > 100 µM (inactive) |  | 26.4 µM (inactive) | > 100 µM (inactive) | 11.3 µM (inactive) | > 100 µM (inactive) | 36.1 µM (inactive)
4 | Cn1c(=O)c2[nH]c(N=O)nc2n(C)c1=O | > 100 µM (inactive) | > 100 µM (inactive) | > 100 µM (inactive) | > 100 µM (inactive) | > 100 µM (inactive) |  | > 100 µM (inactive) | > 100 µM (inactive) | > 100 µM (inactive) | > 100 µM (inactive) | > 100 µM (inactive) | > 100 µM (inactive) | > 100 µM (inactive) | > 100 µM (inactive) | > 100 µM (inactive) | > 100 µM (inactive) | > 100 µM (inactive) | > 100 µM (inactive) | > 100 µM (inactive) | > 100 µM (inactive)
5 | Cc1c2c(n3c(nc4ccccc43)c1C#N)N(c1ccc(F)cc1)CC2 | > 100 µM (inactive) | 71.1 µM (inactive) |  | > 100 µM (inactive) | > 100 µM (inactive) | > 100 µM (inactive) | > 100 µM (inactive) | > 100 µM (inactive) | > 100 µM (inactive) | > 100 µM (inactive) | > 100 µM (inactive) | > 100 µM (inactive) | > 100 µM (inactive) | > 100 µM (inactive) | > 100 µM (inactive) | > 100 µM (inactive) | > 100 µM (inactive) | > 100 µM (inactive) | > 100 µM (inactive) | 
6 | O=C(O)Cc1nc[nH]c1C(=O)O | > 100 µM (inactive) | > 100 µM (inactive) | > 100 µM (inactive) | > 100 µM (inactive) | > 100 µM (inactive) |  | > 100 µM (inactive) | > 100 µM (inactive) | > 100 µM (inactive) | > 100 µM (inactive) | > 100 µM (inactive) | > 100 µM (inactive) | > 100 µM (inactive) | > 100 µM (inactive) | > 100 µM (inactive) | > 100 µM (inactive) | > 100 µM (inactive) | > 100 µM (inactive) | > 100 µM (inactive) | > 100 µM (inactive)
7 | Cn1c(N)cc(=O)nc1N | > 100 µM (inactive) | > 100 µM (inactive) | > 100 µM (inactive) | > 100 µM (inactive) | > 100 µM (inactive) | > 100 µM (inactive) | > 100 µM (inactive) | > 100 µM (inactive) | > 100 µM (inactive) | > 100 µM (inactive) |  | > 100 µM (inactive) | > 100 µM (inactive) | > 100 µM (inactive) | > 100 µM (inactive) | > 100 µM (inactive) | > 100 µM (inactive) | > 100 µM (inactive) | > 100 µM (inactive) | > 100 µM (inactive)
8 | O=C(/C(=C(/Br)I)c1ccccc1)c1ccccc1 | 16 µM (inactive) | 40.1 µM (inactive) | 29 µM (inactive) | 22.7 µM (inactive) | 17.9 µM (inactive) | 27 µM (inactive) |  |  |  | 18.2 µM (inactive) | 17.8 µM (inactive) | 29.7 µM (inactive) | 19.1 µM (inactive) | 22.1 µM (inactive) | 21.4 µM (inactive) | 22.9 µM (inactive) | 50.4 µM (inactive) | 18.4 µM (inactive) | 28.6 µM (inactive) | 14.4 µM (inactive)
9 | COc1ccc(/C=C2\N=C(c3ccccc3)OC2=O)cc1OC(C)=O | 58.9 µM (inactive) | 26.3 µM (inactive) |  | 58.7 µM (inactive) | 47.3 µM (inactive) | 15.2 µM (inactive) | 27.5 µM (inactive) | 94.2 µM (inactive) |  | 56 µM (inactive) | > 100 µM (inactive) | 82.8 µM (inactive) | > 100 µM (inactive) | 27.3 µM (inactive) | 48.9 µM (inactive) | > 100 µM (inactive) | 65.6 µM (inactive) | > 100 µM (inactive) | 31.1 µM (inactive) | 44.9 µM (inactive)
10 | CC(C)(C)OC(=O)NC(Cc1ccc(OCc2ccccc2)cn1)C(N)=O (configuration not stated) | > 100 µM (inactive) | > 100 µM (inactive) | > 100 µM (inactive) | 82.6 µM (inactive) | > 100 µM (inactive) | > 100 µM (inactive) |  | > 100 µM (inactive) | 80 µM (inactive) | > 100 µM (inactive) | 75.2 µM (inactive) | > 100 µM (inactive) | > 100 µM (inactive) | > 100 µM (inactive) | 94.8 µM (inactive) | > 100 µM (inactive) | 86.5 µM (inactive) |  | > 100 µM (inactive) | > 100 µM (inactive)
11 | O=C(O)c1nn[nH]c1Cl | > 100 µM (inactive) | > 100 µM (inactive) | > 100 µM (inactive) | > 100 µM (inactive) | > 100 µM (inactive) |  | > 100 µM (inactive) | > 100 µM (inactive) | > 100 µM (inactive) | > 100 µM (inactive) | > 100 µM (inactive) | > 100 µM (inactive) | > 100 µM (inactive) | > 100 µM (inactive) | > 100 µM (inactive) | > 100 µM (inactive) | > 100 µM (inactive) | > 100 µM (inactive) | > 100 µM (inactive) | > 100 µM (inactive)
12 | COc1cc(OC)c2c(=O)c(O)c(-c3ccc(OC)c(OC)c3)oc2c1 | 4.94 µM (inactive) | 17.3 µM (inactive) | 7.14 µM (inactive) | 8.85 µM (inactive) | 28.2 µM (inactive) | 3.33 µM (inactive) |  | 3.99 µM (inactive) | 4.23 µM (inactive) | 6.87 µM (inactive) | 5.25 µM (inactive) | 4.86 µM (inactive) | 3.94 µM (inactive) | 4.11 µM (inactive) | 3.56 µM (inactive) | 0.755 µM (active) | 11.1 µM (inactive) | 3.43 µM (inactive) | 3.92 µM (inactive) | 5.25 µM (inactive)
13 | Cn1c(=O)oc2cc(C(=S)N3CCC(Cc4ccccc4)CC3)ccc21 | > 100 µM (inactive) | > 100 µM (inactive) | > 100 µM (inactive) |  | > 100 µM (inactive) | 72.3 µM (inactive) | > 100 µM (inactive) | > 100 µM (inactive) |  | > 100 µM (inactive) | > 100 µM (inactive) | > 100 µM (inactive) | > 100 µM (inactive) | > 100 µM (inactive) | > 100 µM (inactive) | > 100 µM (inactive) | > 100 µM (inactive) | > 100 µM (inactive) | > 100 µM (inactive) | 61.7 µM (inactive)
14 | N=C(N)c1ccc(C(NC(=O)CNS(=O)(=O)c2ccc3ccccc3c2)P(=O)(Oc2ccccc2)Oc2ccccc2)cc1 (configuration not stated) | 37.8 µM (inactive) | 35.2 µM (inactive) |  | 40.3 µM (inactive) | 98.6 µM (inactive) | 29.4 µM (inactive) | > 100 µM (inactive) | 51.9 µM (inactive) | 41.2 µM (inactive) | 36.8 µM (inactive) | > 100 µM (inactive) | 31.8 µM (inactive) | > 100 µM (inactive) | 29.8 µM (inactive) | > 100 µM (inactive) | 19.2 µM (inactive) | > 100 µM (inactive) | 44.1 µM (inactive) | 37.8 µM (inactive) | 50 µM (inactive)
15 | C[C@@H](Oc1ccc(Oc2cnc3ccc(Cl)cc3n2)cc1)C(=O)O [R(+)XK469] | 94.2 µM (inactive) | 60.1 µM (inactive) |  | > 100 µM (inactive) | > 100 µM (inactive) | > 100 µM (inactive) | > 100 µM (inactive) | 72.8 µM (inactive) | 19.1 µM (inactive) | > 100 µM (inactive) | > 100 µM (inactive) | 83 µM (inactive) | 11.2 µM (inactive) | > 100 µM (inactive) | 95.7 µM (inactive) | > 100 µM (inactive) | > 100 µM (inactive) | 66.7 µM (inactive) | > 100 µM (inactive) | 
